Data from patent publication US8324390B2, “Tetrazole-substituted anthranilamides as pesticides” (Bayer CropScience AG, priority 2008, dated 2012).
Where two headings read alike, the source gives them in different places. Blank lines part the entries; values can stand above or below the molecule they belong to.

How the values were obtained:
[1] = log P determination by HPLC (EEC Directive 79/831 Annex V.A8); type: physicochemical
Protocol: The measurements were carried out using an Agilent 1100 LC system with a 50*4.6 Zorbax Eclipse C18 1.8 μm column (oven temperature 55° C., flow rate 2.0 ml/min).
The following mobile phases were used:
Mobile phase A: acetonitrile+1000 μl of formic acid/l
Mobile phase B: Millipore water+900 μl of formic acid/l

[2] = test system: caterpillars of the armyworm (Spodoptera frugiperda); test: Spodoptera frugiperda test (SPODFR spray treatment); type: in vivo; settings: Spodoptera frugiperda, foliar, read-out: effect in % (caterpillars killed)
Description: (§1) Solvent: 78.0 parts by weight of acetone

[3] = test system: green peach aphid (Myzus persicae); test: Myzus test (MYZUPE spray treatment); type: in vivo; settings: Myzus persicae, foliar, read-out: effect in % (aphids killed)
Description: Solvent: 78 parts by weight of acetone
as §1

[4] = test system: larvae of the mustard beetle (Phaedon cochleariae); test: Phaedon test (PHAECO spray treatment); settings: Phaedon cochleariae, in Brassica rapa, foliar, read-out: effect in % (beetle larvae killed)
[5] = reversed-phase HPLC, Zorbax Eclipse C18 column, determined by HPLC according to EEC Directive 79/831 Annex V.A8, read-out: log P
[6] = application rate 100 g/ha, maize leaf discs
[7] = application rate 100 g/ha, Chinese cabbage leaf discs
[8] = reversed-phase HPLC, Zorbax Eclipse C18 column, by HPLC according to EEC Directive 79/831 Annex V.A8, read-out: log P

Structure (SMILES): C#CC(C)NC(=O)c1cc(C#N)cc(C)c1NC(=O)c1cc(Cn2nnc(C(F)(F)F)n2)nn1-c1ncccc1Cl (centres unmarked) [Example 432]
chromatographic logP ([1]; log P): 2.97
pest or weed control at 100 g/ha ([2]; in Zea mays): ≥ 80%
pest or weed control at 100 g/ha ([3]; in Brassica rapa): ≥ 80%
pest or weed control at 100 g/ha [4]: ≥ 80%

chromatographic logP [1, 5]: 4.25
Structure (SMILES): Cc1cc(C#N)cc(C(=O)NC(C)(C)C)c1NC(=O)c1cc(Cn2nnc(C(F)(F)C(F)(F)F)n2)nn1-c1ccccc1Cl [Example 434]
pest or weed control at 100 g/ha [2, 6]: ≥ 80%
pest or weed control at 100 g/ha [3, 7]: ≥ 80%
pest or weed control at 100 g/ha [4]: ≥ 80%

chromatographic logP [1, 8]: 3.96
Structure (SMILES): CSC[C@H](C)NC(=O)c1cc(C#N)cc(C)c1NC(=O)c1cc(Cn2nnc(C(F)(C(F)(F)F)C(F)(F)F)n2)nn1-c1ncccc1Cl [Example 376]
pest or weed control at 100 g/ha [2, 6]: ≥ 80%
pest or weed control at 100 g/ha [3, 7]: ≥ 80%
pest or weed control at 100 g/ha [4]: ≥ 80%

Structure (SMILES): Cc1cc(Br)cc(C(=O)NC(C)(C)C)c1NC(=O)c1cc(Cn2nnc(C(F)F)n2)nn1-c1ncccc1Cl [Example 309]
chromatographic logP ([1]; log P): 3.36
pest or weed control at 100 g/ha ([2]; in Zea mays): ≥ 80%
pest or weed control at 100 g/ha ([3]; in Brassica rapa): ≥ 80%
pest or weed control at 100 g/ha [4]: ≥ 80%

Structure (SMILES): Cc1cc(C#N)cc(C(=O)NOC(C)C)c1NC(=O)c1cc(Cn2nnc(C(F)(F)F)n2)nn1-c1ncccc1Cl [Example 398]
chromatographic logP ([1]; log P): 2.88
pest or weed control at 100 g/ha ([2]; in Zea mays): ≥ 80%
pest or weed control at 100 g/ha ([3]; in Brassica rapa): ≥ 80%
pest or weed control at 100 g/ha [4]: ≥ 80%

Structure (SMILES): NC(=O)c1cc(Cl)cc(Cl)c1NC(=O)c1cc(Cn2nnc(C(F)(C(F)(F)F)C(F)(F)F)n2)nn1-c1ncccc1Cl [Example 391]
chromatographic logP ([1]; log P): 3.41
pest or weed control at 100 g/ha ([2]; in Zea mays): ≥ 80%
pest or weed control at 100 g/ha ([3]; in Brassica rapa): ≥ 80%
pest or weed control at 100 g/ha [4]: ≥ 80%

chromatographic logP [1, 5]: 2.28
Structure (SMILES): Cc1cc(C#N)cc(C(N)=O)c1NC(=O)c1cc(Cn2nnnc2C(F)(F)F)nn1-c1ncccc1Br [Example 479]
pest or weed control at 100 g/ha [2, 6]: ≥ 80%
pest or weed control at 100 g/ha [3, 7]: ≥ 80%
pest or weed control at 100 g/ha [4]: ≥ 80%

chromatographic logP [1, 8]: 4.25
Structure (SMILES): Cc1cc(I)cc(C(=O)NC(C)(C)C)c1NC(=O)c1cc(Cn2nnc(C(F)(F)F)n2)nn1-c1ncccc1C(F)(F)F [Example 242]
pest or weed control at 100 g/ha [2, 6]: ≥ 80%
pest or weed control at 100 g/ha [3, 7]: ≥ 80%
pest or weed control at 100 g/ha [4]: ≥ 80%

chromatographic logP [1, 8]: 3.23
Structure (SMILES): CCNC(=O)c1cc(Cl)cc(C)c1NC(=O)c1cc(Cn2nnc(C(F)(F)F)n2)nn1-c1ncccc1Br [Example 346]
pest or weed control at 100 g/ha [2, 6]: ≥ 80%
pest or weed control at 100 g/ha [3, 7]: ≥ 80%
pest or weed control at 100 g/ha [4]: ≥ 80%

Structure (SMILES): Cc1cc(C#N)cc(C(=O)NCCC(F)(F)F)c1NC(=O)c1cc(Cn2nnc(C(F)(F)F)n2)nn1-c1ncccc1Cl [Example 159]
chromatographic logP ([1]; log P): 3.22
pest or weed control at 100 g/ha ([2]; in Zea mays): ≥ 80%
pest or weed control at 100 g/ha ([3]; in Brassica rapa): ≥ 80%
pest or weed control at 100 g/ha [4]: ≥ 80%

chromatographic logP [1, 8]: 3.48
Structure (SMILES): CNC(=O)c1cc(C#N)cc(C)c1NC(=O)c1cc(Cn2nnc(C(F)(F)F)n2)nn1-c1cc(Cl)ccc1Cl [Example 317]
pest or weed control at 100 g/ha [2, 6]: ≥ 80%
pest or weed control at 100 g/ha [3, 7]: ≥ 80%
pest or weed control at 100 g/ha [4]: ≥ 80%

chromatographic logP [1, 5]: 2.66
Structure (SMILES): CCNC(=O)c1cc(C#N)cc(C)c1NC(=O)c1cc(Cn2nnnc2C(F)(F)F)nn1-c1ncccc1Br [Example 478]
pest or weed control at 100 g/ha [2, 6]: ≥ 80%
pest or weed control at 100 g/ha [3, 7]: ≥ 80%
pest or weed control at 100 g/ha [4]: ≥ 80%

chromatographic logP [1, 5]: 3.93
Structure (SMILES): Cc1cc(Cl)cc(C(=O)NC(C)C)c1NC(=O)c1cc(Cn2nnc(C(F)(F)F)n2)nn1-c1ccccc1Cl [Example 427]
pest or weed control at 100 g/ha [2, 6]: ≥ 80%
pest or weed control at 100 g/ha [3, 7]: ≥ 80%
pest or weed control at 100 g/ha [4]: ≥ 80%

Structure (SMILES): O=C(NC1CC1)c1cc(Cl)cc(Cl)c1NC(=O)c1cc(Cn2nnc(C(F)F)n2)nn1-c1ncccc1Cl [Example 284]
chromatographic logP ([1]; log P): 2.7
pest or weed control at 100 g/ha ([2]; in Zea mays): ≥ 80%
pest or weed control at 100 g/ha ([3]; in Brassica rapa): ≥ 80%
pest or weed control at 100 g/ha [4]: ≥ 80%

Structure (SMILES): Cc1cc(F)cc(C(=O)NC(C)(C)C)c1NC(=O)c1cc(Cn2nnc(C(F)(F)C(F)(F)F)n2)nn1-c1ncccc1Cl [Example 221]
chromatographic logP ([1]; log P): 3.88
pest or weed control at 100 g/ha ([2]; in Zea mays): ≥ 80%
pest or weed control at 100 g/ha ([3]; in Brassica rapa): ≥ 80%
pest or weed control at 100 g/ha [4]: ≥ 80%

Structure (SMILES): Cc1cc(Cl)cc(C(=O)NC(C)C2CC2)c1NC(=O)c1cc(Cn2nnc(C(F)(F)F)n2)nn1-c1ncccc1Cl (centres unmarked) [Example 30]
chromatographic logP ([1]; log P): 3.79
pest or weed control at 100 g/ha ([2]; in Zea mays): ≥ 80%
pest or weed control at 100 g/ha ([3]; in Brassica rapa): ≥ 80%
pest or weed control at 100 g/ha [4]: ≥ 80%

Structure (SMILES): CC(C)NC(=O)c1cc(Cl)cc(Cl)c1NC(=O)c1cc(Cn2nnc(C(F)(F)C(F)(F)F)n2)nn1-c1ncccc1Cl [Example 153]
chromatographic logP ([1]; log P): 3.81
pest or weed control at 100 g/ha ([2]; in Zea mays): ≥ 80%
pest or weed control at 100 g/ha ([3]; in Brassica rapa): ≥ 80%
pest or weed control at 100 g/ha [4]: ≥ 80%
